Patent US12180178B2, “Heteroaryl azole compound and pest control agent” (NIPPON SODA CO., LTD., priority 2018, dated 2024)
Read-outs that look alike come from different tables or passages of the source.

Tests used:
Type in all cases: in vivo
[1] = test system: Plutella xylostella; experiment: Test of Efficacy on Plutella xylostella (cabbage leaf dip); settings: foliar, 72 h, cabbage leaves dipped 30 seconds, second instar larvae, after 3 days, read-out: insecticidal rate
Protocol: 5 parts of the heteroaryl azole compound of the present invention, 93.6 parts of dimethylformamide, and 1.4 parts of polyoxyethylene alkyl aryl ether were mixed and dissolved to prepare emulsion (I) containing 5% of the active ingredient. An insecticidal rate was calculated according to the following expression: Insecticidal rate (%)=(The number of dead insects/The number of tested insects)×100 The emulsion (I) was diluted with water such that the concentration of the compound of the present invention was 125 ppm. Cabbage leaves were dipped in the dilution for 30 seconds. The resulting cabbage leaves were placed in a petri dish. Five second instar larvae of Plutella xylostella were released thereto. The petri dish was placed in a thermostat chamber having a temperature of 25° C. and a humidity of 60%. Life and death were determined after 3 days from the release of the insects, and the insecticidal rate was calculated. The test was conducted in duplicate.

[2] = test system: Aphis craccivora; experiment: Test of Efficacy on Aphis craccivora (spray on black-eyed peas); settings: 96 h, read-out: insecticidal rate
Protocol: 5 parts of the heteroaryl azole compound of the present invention, 93.6 parts of dimethylformamide, and 1.4 parts of polyoxyethylene alkyl aryl ether were mixed and dissolved to prepare emulsion (I) containing 5% of the active ingredient.
An insecticidal rate was calculated according to the following expression: Insecticidal rate (%)=(The number of dead insects/The number of tested insects)×100
Seedlings of black-eyed peas were raised in 10-cm pots. Aphis craccivora nymphs were inoculated onto primary leaves. The emulsion (I) was diluted with water such that the concentration of the compound of the present invention was 125 ppm. The dilution was sprayed to the black-eyed peas parasitized by the Aphis craccivora nymphs. The black-eyed peas were placed in a thermostat chamber having a temperature of 25° C. and a humidity of 60%. Life and death of Aphis craccivora were determined after 4 days from the spraying, and the insecticidal rate was calculated. The test was conducted in duplicate.

[3] = test system: Mythimna separata; experiment: Test of Efficacy on Mythimna separata (test feed); settings: 1 μl of emulsion (I) (5% active ingredient) in 0.8 g artificial feed; second instar larvae; 25° C.; fifth day
Protocol: 5 parts of the heteroaryl azole compound of the present invention, 93.6 parts of dimethylformamide, and 1.4 parts of polyoxyethylene alkyl aryl ether were mixed and dissolved to prepare emulsion (I) containing 5% of the active ingredient. For a control, 98.5 parts of dimethylformamide and 1.5 parts of polyoxyethylene alkyl aryl ether were mixed and dissolved to prepare emulsion (II). An insecticidal rate was calculated according to the following expression: Insecticidal rate (%)=(The number of dead insects/The number of tested insects)×100 0.8 g of commercially available artificial feed (Insecta LFS, manufactured by Nosan Corp.) and 1 μl of the emulsion (I) were well mixed to obtain test feed. A plastic test container (capacity: 1.4 ml) was packed with 0.2 g of the test feed per treatment plot. Then, two second instar larvae of Mythimna separata were inoculated to each treatment plot. A plastic lid was put on the test container so as to prevent escape of the second instar larvae of Mythimna separata. The container was placed in a thermostat chamber of 25° C. On the fifth day, the insecticidal rate and the food intake were examined. The test was conducted in duplicate. The insecticidal rate and the food intake of a control plot were examined in the same way as in Test Example 1 except that the emulsion (I) was changed to the emulsion (II).

[4] = 125 ppm, sprayed to black-eyed peas, nymphs, after 4 days

Row | Compound | pest or weed control at 125 ppm [1] [%] | pest or weed control at 125 ppm [2, 4] [%] | insecticidal rate or food intake as compared with the control plot [3] | pest or weed control at 125 ppm [2] [%]
1 | CCS(=O)(=O)c1cc(-c2ccccn2)cnc1-c1ncn(-c2ccc(OC(F)(F)F)cc2)c1Br [d-23] | ≥ 80 |  |  | 
2 | CCS(=O)(=O)c1ccc(-n2cncn2)nc1-c1cn(-c2ccc(OC(F)(F)F)cc2)cn1 [d-24] | ≥ 80 | ≥ 80 | insecticidal rate of 100% for Mythimna separata or a food intake of 10% or less as compared with the control plot | 
3 | CCS(=O)(=O)c1cc(C2CC2)cnc1-c1ncn(-c2ccc(OC(F)(F)C(F)F)cc2)n1 [d-15] | ≥ 80 |  | insecticidal rate of 100% for Mythimna separata or a food intake of 10% or less as compared with the control plot | 
4 | CCS(=O)(=O)c1cc(-c2ncccn2)cnc1-c1ncn(CC(F)(F)C(F)(F)C(F)(F)C(F)F)c1C [a-15] |  |  | insecticidal rate of 100% for Mythimna separata or a food intake of 10% or less as compared with the control plot | 
5 | CCS(=O)(=O)c1cc(-c2ccccn2)cnc1-c1ncn(CC(F)(F)C(F)(F)F)c1C [c-1, 5′-(ethylsulfonyl)-6′-(5-methyl-1-(2,2,3,3,3-pentafluoropropyl)-1H-imidazol-4-yl)-2,3′-bipyridine] |  | ≥ 80 | insecticidal rate of 100% for Mythimna separata or a food intake of 10% or less as compared with the control plot | 
6 | CCS(=O)(=O)c1cc(-c2ncccn2)cnc1-c1ncn(CC(F)(F)C(F)(F)F)c1C [c-2] |  | ≥ 80 | insecticidal rate of 100% for Mythimna separata or a food intake of 10% or less as compared with the control plot | 
7 | CCS(=O)(=O)c1ccc(-n2cncn2)nc1-c1ncn(-c2ccc(OC(F)(F)F)cc2)c1C [d-27] | ≥ 80 | ≥ 80 | insecticidal rate of 100% for Mythimna separata or a food intake of 10% or less as compared with the control plot | 
8 | CCS(=O)(=O)c1ccc(S(=O)(=O)CC)c(-c2cn(-c3ccc(OC(F)(F)F)cc3)cn2)n1 [d-21] |  | ≥ 80 |  | 
9 | CCS(=O)(=O)c1cc(-c2cc(F)cc(F)c2)cnc1-c1ncn(/C=C(\F)C(F)(F)C(F)(F)F)n1 [b-3] |  |  | insecticidal rate of 100% for Mythimna separata or a food intake of 10% or less as compared with the control plot | 
10 | CCS(=O)(=O)c1cnc(-c2ncccn2)nc1-c1ncn(-c2ccc(C(F)(F)C(F)(F)F)cc2)n1 [d-18] |  | ≥ 80 |  | 
11 | CCS(=O)(=O)c1cc(C2CC2)cnc1-c1ncn(-c2ccc(SC(F)(F)F)cc2)n1 [d-9] |  |  | insecticidal rate of 100% for Mythimna separata or a food intake of 10% or less as compared with the control plot | 
12 | CCS(=O)(=O)c1cc(C2CC2)cnc1-c1ncn(/C=C(\F)C(F)(F)F)c1C [a-14] |  |  | insecticidal rate of 100% for Mythimna separata or a food intake of 10% or less as compared with the control plot | 
13 | CCS(=O)(=O)c1cc(C2CC2)cnc1-c1ncn(/C=C(\F)C(F)(F)C(F)(F)F)n1 [b-10] |  |  | insecticidal rate of 100% for Mythimna separata or a food intake of 10% or less as compared with the control plot | 
14 | CCS(=O)(=O)c1ccc(Cl)nc1-c1ncn(-c2ccc(OC(F)(F)F)cc2)n1 [d-10] |  | ≥ 80 | insecticidal rate of 100% for Mythimna separata or a food intake of 10% or less as compared with the control plot | 
15 | CCS(=O)(=O)c1cc(-c2ncccn2)cnc1-c1ncn(-c2ccc(C(F)(F)F)cn2)n1 [d-5] | ≥ 80 |  | insecticidal rate of 100% for Mythimna separata or a food intake of 10% or less as compared with the control plot | 
16 | CCS(=O)(=O)c1cc(-c2ccccn2)cnc1-c1ncn(-c2ccc(OC(F)(F)F)cc2)c1C [d-25] | ≥ 80 | ≥ 80 | insecticidal rate of 100% for Mythimna separata or a food intake of 10% or less as compared with the control plot | 

Row | Compound | pest or weed control at 125 ppm [1] [%] | pest or weed control at 125 ppm [2, 4] [%] | insecticidal rate or food intake as compared with the control plot [3] | pest or weed control at 125 ppm [2] [%]
17 | CCS(=O)(=O)c1cc(-c2ccccn2)cnc1-c1ncn(-c2ccc(OC(F)(F)C(F)F)cc2)n1 [d-16] | ≥ 80 | ≥ 80 | insecticidal rate of 100% for Mythimna separata or a food intake of 10% or less as compared with the control plot | 
18 | CCS(=O)(=O)c1cc(C2CC2)cnc1-c1ncn(CC(F)(F)C(F)(F)F)c1C [c-3] |  | ≥ 80 |  | 
19 | CCS(=O)(=O)c1cc(Br)cnc1-c1ncn(CC(F)(F)C(F)(F)C(F)(F)F)c1C [c-7] |  |  |  | ≥ 80
20 | C=C(C)c1cnc(-c2ncn(-c3ccc(OC(F)(F)F)cc3)n2)c(S(=O)(=O)CC)c1 [d-13] |  |  | insecticidal rate of 100% for Mythimna separata or a food intake of 10% or less as compared with the control plot | 
21 | CCS(=O)(=O)c1cc(Br)cnc1-c1ncn(CC(F)(F)C(F)(F)F)c1C [c-4] |  | ≥ 80 |  | 
22 | CCS(=O)(=O)c1cc(C2(C)CC2)cnc1-c1ncn(/C=C(\F)C(F)(F)C(F)(F)C(F)(F)F)n1 [b-22] |  |  | insecticidal rate of 100% for Mythimna separata or a food intake of 10% or less as compared with the control plot | 
23 | CCS(=O)(=O)c1cc(Br)cnc1-c1ncn(/C=C(\F)C(F)(F)C(F)(F)C(F)F)n1 [b-20] |  |  | insecticidal rate of 100% for Mythimna separata or a food intake of 10% or less as compared with the control plot | 
24 | CCS(=O)(=O)c1cc(C2(C)CC2)cnc1-c1ncn(-c2ccc(OC(F)(F)F)cc2)n1 [d-14] |  | ≥ 80 | insecticidal rate of 100% for Mythimna separata or a food intake of 10% or less as compared with the control plot | 
25 | CCS(=O)(=O)c1ccc(-n2cncn2)nc1-c1ncn(-c2ccc(OC(F)(F)F)cc2)c1Br [d-26] | ≥ 80 | ≥ 80 | insecticidal rate of 100% for Mythimna separata or a food intake of 10% or less as compared with the control plot | 
26 | CCS(=O)(=O)c1cc(C(F)(F)F)cnc1-c1ncn(CC(F)(F)C(F)(F)C(F)(F)F)c1C [a-5] |  |  | insecticidal rate of 100% for Mythimna separata or a food intake of 10% or less as compared with the control plot | 
27 | CCS(=O)(=O)c1ccc(-n2cncn2)nc1-c1ncn(-c2ccc(C(F)(F)F)cn2)n1 [d-3] |  | ≥ 80 | insecticidal rate of 100% for Mythimna separata or a food intake of 10% or less as compared with the control plot | 
28 | CCS(=O)(=O)c1ccc(-n2cncn2)nc1-c1ncn(-c2ccc(OC(F)(F)F)cc2)n1 [d-11] |  | ≥ 80 | insecticidal rate of 100% for Mythimna separata or a food intake of 10% or less as compared with the control plot | 
29 | CCS(=O)(=O)c1cc(-c2ncccn2)cnc1-c1ncn(/C=C(\F)C(F)(F)C(F)(F)F)n1 [b-12] |  |  | insecticidal rate of 100% for Mythimna separata or a food intake of 10% or less as compared with the control plot | 
30 | CCS(=O)(=O)c1cc(C(F)(F)F)cnc1-c1ncn(/C=C(\F)C(F)(F)C(F)(F)F)c1C [a-4] |  |  | insecticidal rate of 100% for Mythimna separata or a food intake of 10% or less as compared with the control plot | 
31 | CCS(=O)(=O)c1cc(C2CC2)cnc1-c1ncn(CC(F)(F)C(F)(F)C(F)(F)F)c1C [c-6] |  | ≥ 80 | insecticidal rate of 100% for Mythimna separata or a food intake of 10% or less as compared with the control plot | 
